Measurements published in patent US20240254119A1 (THIRD HARMONIC BIO, INC., priority 2022, published 2024).

target: T1, CSF-1R (Homo sapiens, UniProt P07333); experiment: Caliper biochemical assay, CSF-1R; conditions: Table 6
T1 construct: purchased Invitrogen PV3249 (lot 662393N)
Summary of the method: (§1)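 Mobility-shift readout: after EDTA quench, fluorescent peptide and product are resolved electrophoretically on a LabChip and measured by fluorescence. Reactions contain enzyme, carboxyfluorescein peptide, ATP, Mn^2+ and compound, run 3 h at 25° C; 100% inhibition control lacks enzyme.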

T1 sequence (P07333 20-972): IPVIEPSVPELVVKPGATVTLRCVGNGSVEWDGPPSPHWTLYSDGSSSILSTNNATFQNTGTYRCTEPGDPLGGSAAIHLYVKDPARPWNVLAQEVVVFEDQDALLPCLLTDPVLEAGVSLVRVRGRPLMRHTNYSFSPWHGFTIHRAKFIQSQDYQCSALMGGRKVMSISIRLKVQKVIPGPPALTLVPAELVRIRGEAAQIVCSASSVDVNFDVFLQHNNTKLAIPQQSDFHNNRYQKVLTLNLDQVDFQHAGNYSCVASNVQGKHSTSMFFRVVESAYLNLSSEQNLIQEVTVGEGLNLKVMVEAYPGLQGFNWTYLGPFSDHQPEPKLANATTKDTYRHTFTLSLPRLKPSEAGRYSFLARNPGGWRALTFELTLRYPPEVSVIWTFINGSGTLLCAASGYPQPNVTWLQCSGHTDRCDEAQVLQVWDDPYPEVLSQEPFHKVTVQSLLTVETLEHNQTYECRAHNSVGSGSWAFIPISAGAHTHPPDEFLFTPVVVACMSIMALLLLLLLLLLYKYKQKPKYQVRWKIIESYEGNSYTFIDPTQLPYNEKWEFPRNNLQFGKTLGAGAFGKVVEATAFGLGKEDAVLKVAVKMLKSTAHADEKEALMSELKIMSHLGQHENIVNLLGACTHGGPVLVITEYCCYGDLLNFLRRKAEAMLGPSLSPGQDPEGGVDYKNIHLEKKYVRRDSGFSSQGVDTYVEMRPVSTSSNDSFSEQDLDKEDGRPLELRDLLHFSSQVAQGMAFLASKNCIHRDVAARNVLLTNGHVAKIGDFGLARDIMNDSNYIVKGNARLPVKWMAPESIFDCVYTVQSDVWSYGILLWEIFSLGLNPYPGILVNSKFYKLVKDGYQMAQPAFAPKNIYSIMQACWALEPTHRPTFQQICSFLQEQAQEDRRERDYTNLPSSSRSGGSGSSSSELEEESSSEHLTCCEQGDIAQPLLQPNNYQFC

Row | SMILES | IC50
1 | Cc1ccc(-c2noc(CCO)n2)cc1NC(=O)c1cnc2ccccn12 [Compound I-306] | 50 to 500 nM
2 | Cc1ccc(-c2noc(C3(N)CC4(CC(F)(F)C4)C3)n2)cc1NC(=O)c1cnc2ccccn12 [Compound I-307] | ≤ 50 nM
3 | Cc1ccc(-c2noc(CO)n2)cc1NC(=O)c1cnc2ccccn12 [Compound I-337] | 50 to 500 nM
4 | COC(=O)N1CC(c2nc(-c3ccc(Cl)c(NC(=O)c4cnc5ccccn45)c3)no2)C1 [Compound I-339] | ≤ 50 nM

Second part, the molecule after the results:

Row | IC50 | SMILES
5 | ≤ 50 nM | Cc1cc(C)cc(Nc2ccc3ncc(C(=O)Nc4cc(-c5noc([C@H]6C[C@@H]6F)n5)ccc4C)n3c2)c1 [Compound I-299]
6 | ≤ 50 nM | CCCNc1ccn2c(C(=O)Nc3cc(-c4noc([C@H]5C[C@@H]5F)n4)ccc3C)cnc2c1 [Compound I-304]
7 | 500 to 5000 nM | Cc1ccc(-c2noc(CC(=O)O)n2)cc1NC(=O)c1cnc2ccccn12 [Compound I-335]
8 | ≤ 50 nM | O=C(Nc1cc(-c2noc([C@H]3C[C@@H]3F)n2)ccc1Br)c1cnc2ccccn12 [Compound I-340]

target: T2, BCRP (BCRP-MDCKII monolayer) (Homo sapiens, UniProt Q9UNQ0); experiment: MDCKII-BCRP bidirectional transport assay; type: in vitro ADME; conditions: not given
T2 construct: host or cells: MDCKII (canine kidney) cells
T2 sequence (Q9UNQ0 1-655): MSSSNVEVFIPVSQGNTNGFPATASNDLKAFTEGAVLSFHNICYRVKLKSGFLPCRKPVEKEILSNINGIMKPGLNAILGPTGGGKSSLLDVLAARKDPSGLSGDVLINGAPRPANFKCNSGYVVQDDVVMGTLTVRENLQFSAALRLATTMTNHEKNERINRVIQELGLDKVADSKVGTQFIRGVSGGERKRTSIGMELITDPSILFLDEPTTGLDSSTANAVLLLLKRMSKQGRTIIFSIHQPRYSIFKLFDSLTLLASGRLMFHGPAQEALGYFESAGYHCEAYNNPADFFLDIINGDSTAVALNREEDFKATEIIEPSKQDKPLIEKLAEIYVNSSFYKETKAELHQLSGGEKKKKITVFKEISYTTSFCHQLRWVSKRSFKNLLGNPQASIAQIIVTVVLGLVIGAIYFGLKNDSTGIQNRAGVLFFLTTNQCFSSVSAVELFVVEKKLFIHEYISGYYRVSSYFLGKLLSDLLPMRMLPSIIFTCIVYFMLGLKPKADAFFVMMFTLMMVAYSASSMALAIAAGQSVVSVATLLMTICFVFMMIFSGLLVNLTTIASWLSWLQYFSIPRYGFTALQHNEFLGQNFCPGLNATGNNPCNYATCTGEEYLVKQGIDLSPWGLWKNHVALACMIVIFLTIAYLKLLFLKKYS
Summary of the method: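 Efflux ratios were derived from Papp values, alongside recovery, with compounds quantified by LC-MS/MS. Both directions were tested in duplicate across BCRP-MDCKII monolayers used on days 12–15. Incubation ran 120 min at 37° C, 5% CO2, after a 15 min preincubation in assay buffer.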

Row | SMILES | MDCK-BCRP: Efflux Ratio
9 | Cc1ccc(-c2noc(CCO)n2)cc1NC(=O)c1cnc2ccccn12 [Compound I-306] | 23.2
10 | Cc1ccc(-c2noc(C3(N)CC4(CC(F)(F)C4)C3)n2)cc1NC(=O)c1cnc2ccccn12 [Compound I-307] | 3.77
11 | Cc1ccc(-c2noc(CO)n2)cc1NC(=O)c1cnc2ccccn12 [Compound I-337] | 4.71
12 | COC(=O)N1CC(c2nc(-c3ccc(Cl)c(NC(=O)c4cnc5ccccn45)c3)no2)C1 [Compound I-339] | 1.75

Next, values leading:

Row | MDCK-BCRP: Efflux Ratio | SMILES
13 | 13.7 | Cc1cc(C)cc(Nc2ccc3ncc(C(=O)Nc4cc(-c5noc([C@H]6C[C@@H]6F)n5)ccc4C)n3c2)c1 [Compound I-299]
14 | 3.43 | CCCNc1ccn2c(C(=O)Nc3cc(-c4noc([C@H]5C[C@@H]5F)n4)ccc3C)cnc2c1 [Compound I-304]
15 | 0.37 | Cc1ccc(-c2noc(CC(=O)O)n2)cc1NC(=O)c1cnc2ccccn12 [Compound I-335]
16 | 0.28 | O=C(Nc1cc(-c2noc([C@H]3C[C@@H]3F)n2)ccc1Br)c1cnc2ccccn12 [Compound I-340]

same assay, conditions: apical to basolateral

Row | SMILES | MDCK-BCRP: Papp A-B
17 | Cc1ccc(-c2noc(CCO)n2)cc1NC(=O)c1cnc2ccccn12 [Compound I-306] | 1.46 10^−6 cm/s
18 | Cc1ccc(-c2noc(C3(N)CC4(CC(F)(F)C4)C3)n2)cc1NC(=O)c1cnc2ccccn12 [Compound I-307] | 7.39 10^−6 cm/s
19 | Cc1ccc(-c2noc(CO)n2)cc1NC(=O)c1cnc2ccccn12 [Compound I-337] | 3.73 10^−6 cm/s
20 | COC(=O)N1CC(c2nc(-c3ccc(Cl)c(NC(=O)c4cnc5ccccn45)c3)no2)C1 [Compound I-339] | 13 10^−6 cm/s

Continued, values first:

Row | MDCK-BCRP: Papp A-B | SMILES
21 | 0.01 10^−6 cm/s | Cc1cc(C)cc(Nc2ccc3ncc(C(=O)Nc4cc(-c5noc([C@H]6C[C@@H]6F)n5)ccc4C)n3c2)c1 [Compound I-299]
22 | 5.05 10^−6 cm/s | CCCNc1ccn2c(C(=O)Nc3cc(-c4noc([C@H]5C[C@@H]5F)n4)ccc3C)cnc2c1 [Compound I-304]
23 | 1.99 10^−6 cm/s | Cc1ccc(-c2noc(CC(=O)O)n2)cc1NC(=O)c1cnc2ccccn12 [Compound I-335]
24 | 80.4 10^−6 cm/s | O=C(Nc1cc(-c2noc([C@H]3C[C@@H]3F)n2)ccc1Br)c1cnc2ccccn12 [Compound I-340]

tested on: not listed separately; experiment: Kinetic solubility assay; type: physicochemical; conditions: kinetic solubility, 50 mM PB (pH 7.4), shaken 24 hours at RT
Summary of the method: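 Concentration in the filtrate was determined by UPLC-UV or HPLC-UV with a standard curve. Before that, compound (10 mM DMSO stock) in 50 mM PB at pH 7.4 was agitated 24 h at room temperature, then PTFE-filtered with centrifugation.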

Row | SMILES | Solubility (μM)
25 | Cc1cc(C)cc(Nc2ccc3ncc(C(=O)Nc4cc(-c5noc([C@H]6C[C@@H]6F)n5)ccc4C)n3c2)c1 [Compound I-299] | **** (a solubility less than or equal to 2 μM)
26 | CCCNc1ccn2c(C(=O)Nc3cc(-c4noc([C@H]5C[C@@H]5F)n4)ccc3C)cnc2c1 [Compound I-304] | **** (a solubility less than or equal to 2 μM)
27 | Cc1ccc(-c2noc(CCO)n2)cc1NC(=O)c1cnc2ccccn12 [Compound I-306] | * (a solubility greater than 50 μM)
28 | Cc1ccc(-c2noc(C3(N)CC4(CC(F)(F)C4)C3)n2)cc1NC(=O)c1cnc2ccccn12 [Compound I-307] | ** (a solubility greater than 10 μM and less than or equal to 50 μM)
29 | Cc1ccc(-c2noc(CC(=O)O)n2)cc1NC(=O)c1cnc2ccccn12 [Compound I-335] | * (a solubility greater than 50 μM)
30 | Cc1ccc(-c2noc(CO)n2)cc1NC(=O)c1cnc2ccccn12 [Compound I-337] | * (a solubility greater than 50 μM)
31 | COC(=O)N1CC(c2nc(-c3ccc(Cl)c(NC(=O)c4cnc5ccccn45)c3)no2)C1 [Compound I-339] | **** (a solubility less than or equal to 2 μM)
32 | O=C(Nc1cc(-c2noc([C@H]3C[C@@H]3F)n2)ccc1Br)c1cnc2ccccn12 [Compound I-340] | **** (a solubility less than or equal to 2 μM)

target: T3, PDGFRα (Homo sapiens, UniProt P16234); experiment: Caliper biochemical assay, PDGFRα; conditions: Table 6
T3 construct: purchased Millipore 14-467 (lot 26321_ACTI)
Summary of the method: as §1

T3 sequence (P16234 24-1089): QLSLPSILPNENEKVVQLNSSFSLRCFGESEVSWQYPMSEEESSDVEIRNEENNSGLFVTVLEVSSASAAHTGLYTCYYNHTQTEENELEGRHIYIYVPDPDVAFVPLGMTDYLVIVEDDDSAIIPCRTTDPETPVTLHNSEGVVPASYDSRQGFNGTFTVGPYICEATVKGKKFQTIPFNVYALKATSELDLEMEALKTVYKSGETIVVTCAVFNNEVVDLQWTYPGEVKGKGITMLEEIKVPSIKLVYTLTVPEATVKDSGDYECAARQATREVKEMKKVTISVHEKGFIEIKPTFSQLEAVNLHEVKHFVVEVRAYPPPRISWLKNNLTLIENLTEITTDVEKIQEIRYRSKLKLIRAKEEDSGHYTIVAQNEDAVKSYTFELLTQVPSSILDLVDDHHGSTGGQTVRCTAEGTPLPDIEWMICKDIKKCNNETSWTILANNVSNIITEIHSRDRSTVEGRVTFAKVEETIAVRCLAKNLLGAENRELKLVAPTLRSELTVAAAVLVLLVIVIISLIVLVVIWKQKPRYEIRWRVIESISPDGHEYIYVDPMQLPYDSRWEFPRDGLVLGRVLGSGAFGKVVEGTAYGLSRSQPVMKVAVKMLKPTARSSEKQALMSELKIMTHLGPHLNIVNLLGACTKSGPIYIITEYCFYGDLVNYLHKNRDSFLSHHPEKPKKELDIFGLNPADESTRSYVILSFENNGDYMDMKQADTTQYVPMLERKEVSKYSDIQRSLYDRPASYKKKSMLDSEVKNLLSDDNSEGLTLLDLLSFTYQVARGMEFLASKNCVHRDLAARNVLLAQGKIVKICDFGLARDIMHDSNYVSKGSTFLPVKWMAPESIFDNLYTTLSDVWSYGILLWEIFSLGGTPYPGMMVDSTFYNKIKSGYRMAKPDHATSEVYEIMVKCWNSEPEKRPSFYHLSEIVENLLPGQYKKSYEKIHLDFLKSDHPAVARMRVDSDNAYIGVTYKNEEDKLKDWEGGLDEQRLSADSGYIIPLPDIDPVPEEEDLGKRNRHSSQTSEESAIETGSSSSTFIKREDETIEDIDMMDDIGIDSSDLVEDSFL

Row | SMILES | IC50
33 | Cc1ccc(-c2noc(CCO)n2)cc1NC(=O)c1cnc2ccccn12 [Compound I-306] | 5000 to 30000 nM
34 | Cc1ccc(-c2noc(C3(N)CC4(CC(F)(F)C4)C3)n2)cc1NC(=O)c1cnc2ccccn12 [Compound I-307] | 500 to 5000 nM
35 | Cc1ccc(-c2noc(CO)n2)cc1NC(=O)c1cnc2ccccn12 [Compound I-337] | 50 to 500 nM
36 | COC(=O)N1CC(c2nc(-c3ccc(Cl)c(NC(=O)c4cnc5ccccn45)c3)no2)C1 [Compound I-339] | 500 to 5000 nM

Now from value to molecule:

Row | IC50 | SMILES
37 | 50 to 500 nM | Cc1cc(C)cc(Nc2ccc3ncc(C(=O)Nc4cc(-c5noc([C@H]6C[C@@H]6F)n5)ccc4C)n3c2)c1 [Compound I-299]
38 | ≤ 50 nM | CCCNc1ccn2c(C(=O)Nc3cc(-c4noc([C@H]5C[C@@H]5F)n4)ccc3C)cnc2c1 [Compound I-304]
39 | 500 to 5000 nM | Cc1ccc(-c2noc(CC(=O)O)n2)cc1NC(=O)c1cnc2ccccn12 [Compound I-335]
40 | 50 to 500 nM | O=C(Nc1cc(-c2noc([C@H]3C[C@@H]3F)n2)ccc1Br)c1cnc2ccccn12 [Compound I-340]

target: T4, wtKIT (Homo sapiens, UniProt P10721); experiment: Caliper biochemical assay, wtKIT; conditions: Table 6, read-out: KIT Biochemical IC50 avg
T4 construct: 1888289AM in the reaction mixtures
Summary of the method: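 Mobility-shift read-out: after EDTA stop, fluorescent peptide substrate and product resolved electrophoretically on LabChip 3000. Reaction ran 3 h at 25° C with 400 μM ATP, Mn^2+ cofactor, 5.0 nM wtKIT, 1 μM FAM-peptide, pH 7.5 HEPES buffer; no-enzyme wells defined full inhibition.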

T4 sequence (P10721 26-976): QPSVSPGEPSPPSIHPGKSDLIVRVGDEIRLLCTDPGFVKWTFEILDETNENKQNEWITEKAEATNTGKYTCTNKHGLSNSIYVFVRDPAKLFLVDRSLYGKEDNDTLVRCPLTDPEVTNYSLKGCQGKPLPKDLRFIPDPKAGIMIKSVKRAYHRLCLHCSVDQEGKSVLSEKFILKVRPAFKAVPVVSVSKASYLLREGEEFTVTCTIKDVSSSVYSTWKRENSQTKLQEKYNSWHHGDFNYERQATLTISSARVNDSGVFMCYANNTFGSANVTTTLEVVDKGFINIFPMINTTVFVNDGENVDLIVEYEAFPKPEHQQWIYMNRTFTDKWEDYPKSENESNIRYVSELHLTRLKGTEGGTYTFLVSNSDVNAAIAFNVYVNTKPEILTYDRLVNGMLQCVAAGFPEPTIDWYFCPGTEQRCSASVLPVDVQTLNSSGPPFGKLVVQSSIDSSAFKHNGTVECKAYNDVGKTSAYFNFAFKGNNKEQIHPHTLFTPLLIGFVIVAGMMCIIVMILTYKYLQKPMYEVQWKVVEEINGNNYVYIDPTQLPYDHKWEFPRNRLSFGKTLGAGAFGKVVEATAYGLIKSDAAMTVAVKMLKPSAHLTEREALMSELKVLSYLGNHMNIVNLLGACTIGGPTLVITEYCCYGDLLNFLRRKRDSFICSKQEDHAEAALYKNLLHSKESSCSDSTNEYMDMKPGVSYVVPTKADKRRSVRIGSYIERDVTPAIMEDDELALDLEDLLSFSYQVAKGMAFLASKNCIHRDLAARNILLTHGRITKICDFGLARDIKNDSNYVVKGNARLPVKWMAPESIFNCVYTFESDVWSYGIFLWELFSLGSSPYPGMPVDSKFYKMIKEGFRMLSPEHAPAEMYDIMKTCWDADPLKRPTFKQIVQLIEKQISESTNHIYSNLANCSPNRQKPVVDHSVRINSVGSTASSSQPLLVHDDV

Row | SMILES | IC50
41 | Cc1ccc(-c2noc(CCO)n2)cc1NC(=O)c1cnc2ccccn12 [Compound I-306] | ≤ 50 nM
42 | Cc1ccc(-c2noc(C3(N)CC4(CC(F)(F)C4)C3)n2)cc1NC(=O)c1cnc2ccccn12 [Compound I-307] | ≤ 50 nM
43 | Cc1ccc(-c2noc(CO)n2)cc1NC(=O)c1cnc2ccccn12 [Compound I-337] | ≤ 50 nM
44 | COC(=O)N1CC(c2nc(-c3ccc(Cl)c(NC(=O)c4cnc5ccccn45)c3)no2)C1 [Compound I-339] | ≤ 50 nM

Results, then the molecule that gave them:

Row | IC50 | SMILES
45 | ≤ 50 nM | Cc1cc(C)cc(Nc2ccc3ncc(C(=O)Nc4cc(-c5noc([C@H]6C[C@@H]6F)n5)ccc4C)n3c2)c1 [Compound I-299]
46 | ≤ 50 nM | CCCNc1ccn2c(C(=O)Nc3cc(-c4noc([C@H]5C[C@@H]5F)n4)ccc3C)cnc2c1 [Compound I-304]
47 | 50 to 500 nM | Cc1ccc(-c2noc(CC(=O)O)n2)cc1NC(=O)c1cnc2ccccn12 [Compound I-335]
48 | ≤ 50 nM | O=C(Nc1cc(-c2noc([C@H]3C[C@@H]3F)n2)ccc1Br)c1cnc2ccccn12 [Compound I-340]
